In ChEMBL document CHEMBL4622868, “Design and synthesis of amphiphilic 2-hydroxybenzylphosphonium salts with antimicrobial and antitumor dual action” (Bioorg Med Chem Lett, 2020):
Converted amounts (≈) assume the structure as drawn. The source made the active and inactive calls. No cut-off for these calls is given here. Non-standard residues stand in square brackets, D forms with d. Residues, ends and D or L forms follow the SMILES beside them. Orn = NCCC[C@H](N)C(=O)O

Legend:
[1] = test system: Trichophyton mentagrophytes; test: Antifungal activity against Trichophyton mentagrophytes; assay type: functional
[2] = test system: Trichophyton mentagrophytes; test: Fungicidal activity against Trichophyton mentagrophytes; assay type: functional
[3] = test system: Candida albicans; test: Antifungal activity against Candida albicans; assay type: functional
[4] = test system: Candida albicans; test: Fungicidal activity against Candida albicans; assay type: functional
[5] = test system: Staphylococcus aureus; test: Antibacterial activity against Staphylococcus aureus ATCC 209p; assay type: functional
[6] = test system: Staphylococcus aureus; test: Bactericidal activity against Staphylococcus aureus ATCC 209p; assay type: functional
[7] = test system: Bacillus cereus; test: Antibacterial activity against Bacillus cereus; assay type: functional
[8] = test system: Bacillus cereus; test: Bactericidal activity against Bacillus cereus; assay type: functional
[9] = test system: Staphylococcus aureus; test: Antibacterial activity against clinical isolate amoxicillin and ciprofloxacin resistance Staphylococcus aureus; assay type: functional
[10] = test system: Staphylococcus aureus; test: Bactericidal activity against clinical isolate amoxicillin and ciprofloxacin resistance Staphylococcus aureus; assay type: functional
[11] = test system: Staphylococcus aureus; test: Antibacterial activity against clinical isolate amoxicillin resistance Staphylococcus aureus; assay type: functional
[12] = test system: Staphylococcus aureus; test: Bactericidal activity against clinical isolate amoxicillin resistance Staphylococcus aureus; assay type: functional
[13] = Biosurfactant activity assessed as critical micelle concentration of compound by tensiometry analysis; assay type: functional
[14] = Biosurfactant activity assessed as Critical micelle concentration of compound by conductometry analysis; assay type: physicochemical
[15] = Hemolytic activity against RBC (unknown origin) at 480 uM; assay type: ADME, cell-based, Erythrocyte; details: red blood cells (erythrocytes); read-out: Activity
[16] = Hemolytic activity against RBC (unknown origin) at 240 uM; assay type: ADME, cell-based, Erythrocyte; details: red blood cells (erythrocytes); read-out: Activity
[17] = Hemolytic activity against RBC (unknown origin) at 120 uM; assay type: ADME, cell-based, Erythrocyte; details: red blood cells (erythrocytes); read-out: Activity
[18] = Hemolytic activity against RBC (unknown origin) at 60 uM; assay type: ADME, cell-based, Erythrocyte; details: red blood cells (erythrocytes); read-out: Activity
[19] = Hemolytic activity against RBC (unknown origin) at 40 uM; assay type: ADME, cell-based, Erythrocyte; details: red blood cells (erythrocytes); read-out: Activity
[20] = Hemolytic activity against RBC (unknown origin) at 20 uM; assay type: ADME, cell-based, Erythrocyte; details: red blood cells (erythrocytes); read-out: Activity
[21] = Hemolytic activity against RBC (unknown origin) at 10 uM; assay type: ADME, cell-based, Erythrocyte; details: red blood cells (erythrocytes); read-out: Activity
[22] = Hemolytic activity against RBC (unknown origin) at 5 uM; assay type: ADME, cell-based, Erythrocyte; details: red blood cells (erythrocytes); read-out: Activity
[23] = Hemolytic activity against RBC (unknown origin) at 1 uM; assay type: ADME, cell-based, Erythrocyte; details: red blood cells (erythrocytes); read-out: Activity
[24] = test system: M-HeLa; test: Cytotoxicity against human M-HeLa cells; assay type: functional, cell-based
[25] = test system: MCF7; test: Cytotoxicity against human MCF7 cells; assay type: functional, cell-based
[26] = test system: HepG2; test: Cytotoxicity against human HepG2 cells; assay type: functional, cell-based; details: read-out: IC50
[27] = test system: PANC-1; test: Cytotoxicity against human PANC1 cells; assay type: functional, cell-based
[28] = Cytotoxicity against human Chang cells; assay type: cell-based
[29] = Selectivity index, ratio of IC50 for human Chang cells to IC50 for human M-HeLa cells
[30] = Selectivity index, ratio of IC50 for human Chang cells to IC50 for human MCF7 cells
[31] = Selectivity index, ratio of IC50 for human Chang cells to IC50 for human HepG2 cells
[32] = Selectivity index, ratio of IC50 for human Chang cells to IC50 for human PANC1 cells
[33] = test system: Staphylococcus aureus; test: Antibacterial activity against Staphylococcus aureus ATCC 209p assessed as increase in crystal violet uptake at 2 uM incubated for 30 mins (reference value: 1.8 %); assay type: functional

What does the source list for `CC(=O)N1CCN(c2ccc(OCC3COC(Cn4ccnc4)(c4ccc(Cl)cc4Cl)O3)cc2)CC1` (stereo not drawn) [KETOCONAZOLE]?
MIC [1]: 7.3 µM (≈ 3.88 µg/mL); MFC [2]: 16.6 µM (≈ 8.82 µg/mL); MIC [3]: 7.3 µM (≈ 3.88 µg/mL); MFC [4]: 16.6 µM (≈ 8.82 µg/mL)

For `CCCCCCCCCCCCCCCCCC[P+](Cc1ccccc1O)(c1ccccc1)c1ccccc1.[Cl-]`, which MIC [5] is on record?
The MIC was 108 µM.

What about the MBC [6] of the same molecule?
The MBC was 215 µM.

And the MIC [7]?
The MIC was 108 µM.

What about the MBC [8] of the same molecule?
The MBC was 215 µM.

And the MIC [1]?
Its MIC is “inactive”.

What about the MFC [2] of the same molecule?
The MFC was “inactive”.

What about the MIC [3] of the same molecule?
The MIC was “inactive”.

What about the MFC [4] of the same molecule?
The MFC was “inactive”.

What about the MIC [9] of the same molecule?
The MIC was “inactive”.

And the MBC [10]?
Its MBC is “inactive”.

What about the MIC [11] of the same molecule?
Its MIC is “inactive”.

What about the MBC [12] of the same molecule?
Its MBC is “inactive”.

And the CMC [13]?
Its CMC is 0.04 mM.

What about the CMC [14] of the same molecule?
The CMC was 0.04 mM.

What about the hemolysis at 480 µM [15] of the same molecule?
Its hemolysis at 480 µM is 100%.

What about the hemolysis at 240 µM [16] of the same molecule?
The hemolysis at 240 µM was 100%.

What about the hemolysis at 120 µM [17] of the same molecule?
The hemolysis at 120 µM was 15.6%.

What about the hemolysis at 60 µM [18] of the same molecule?
The hemolysis at 60 µM was 2.5%.

What about the hemolysis at 40 µM [19] of the same molecule?
The hemolysis at 40 µM was 1.4%.

What about the hemolysis at 20 µM [20] of the same molecule?
The hemolysis at 20 µM was 1.2%.

What about the hemolysis at 10 µM [21] of the same molecule?
Its hemolysis at 10 µM is 0%.

What about the hemolysis at 5 µM [22] of the same molecule?
The hemolysis at 5 µM was 0%.

What about the hemolysis at 1 µM [23] of the same molecule?
The hemolysis at 1 µM was 0%.

And the IC50 [24]?
The IC50 was 68 µM.

What about the IC50 [25] of the same molecule?
Its IC50 is 49 µM.

What about the IC50 [26] of the same molecule?
Its IC50 is 73 µM.

What about the IC50 [27] of the same molecule?
The IC50 was 65 µM.

What about the IC50 [28] of the same molecule?
The IC50 was 69 µM.

What about the “Ratio IC50” value [29] of the same molecule?
The value was 1.

What about the “Ratio IC50” value [30] of the same molecule?
Its value is 1.4.

What about the “Ratio IC50” value [31] of the same molecule?
Its value is 0.94.

And the “Ratio IC50” value [32]?
Its value is 1.1.

For `O=C(O)c1cn(C2CC2)c2cc(N3CCNCC3)c(F)cc2c1=O` [CIPROFLOXACIN], which MIC [5] is on record?
Its MIC is 0.7 µM (≈ 0.232 µg/mL).

And the MBC [6]?
The MBC was 1.5 µM (≈ 0.497 µg/mL).

And the MIC [7]?
The MIC was 0.7 µM (≈ 0.232 µg/mL).

What about the MBC [8] of the same molecule?
The MBC was 1.5 µM (≈ 0.497 µg/mL).

What does the source list for `CC1(C)S[C@@H]2[C@H](NC(=O)[C@H](N)c3ccc(O)cc3)C(=O)N2[C@H]1C(=O)O` [AMOXICILLIN]?
MIC [9]: 94.4 µM (≈ 34.5 µg/mL); MBC [10]: 94.4 µM (≈ 34.5 µg/mL); MIC [11]: 85.6 µM (≈ 31.3 µg/mL); MBC [12]: 85.6 µM (≈ 31.3 µg/mL)

Which MIC [5] does the source give for `CCCCCC[P+](Cc1ccccc1O)(c1ccccc1)c1ccccc1.[Cl-]` here?
Its MIC is 18.9 µM.

And the MBC [6]?
The MBC was 37.8 µM.

And the MIC [7]?
The MIC was 37.8 µM.

And the MBC [8]?
The MBC was 152 µM.

And the MIC [1]?
The MIC was 606 µM.

And the MFC [2]?
Its MFC is “inactive”.

What about the MIC [3] of the same molecule?
The MIC was 606 µM.

And the MFC [4]?
Its MFC is “inactive”.

What about the MIC [9] of the same molecule?
Its MIC is 75.6 µM.

And the MBC [10]?
Its MBC is 302 µM.

And the MIC [11]?
Its MIC is 37.8 µM.

And the MBC [12]?
The MBC was 151 µM.

And the hemolysis at 480 µM [15]?
Its hemolysis at 480 µM is 4.8%.

And the hemolysis at 240 µM [16]?
Its hemolysis at 240 µM is 2.5%.

And the hemolysis at 120 µM [17]?
Its hemolysis at 120 µM is 0.4%.

And the hemolysis at 60 µM [18]?
Its hemolysis at 60 µM is 0.3%.

What about the hemolysis at 40 µM [19] of the same molecule?
Its hemolysis at 40 µM is 0.2%.

And the hemolysis at 20 µM [20]?
Its hemolysis at 20 µM is 0.2%.

What about the hemolysis at 10 µM [21] of the same molecule?
The hemolysis at 10 µM was 0%.

What about the hemolysis at 5 µM [22] of the same molecule?
Its hemolysis at 5 µM is 0%.

What about the hemolysis at 1 µM [23] of the same molecule?
Its hemolysis at 1 µM is 0%.

And the IC50 [24]?
The IC50 was 50 µM.

And the IC50 [25]?
Its IC50 is 86 µM.

What about the IC50 [26] of the same molecule?
The IC50 was 83 µM.

What about the IC50 [27] of the same molecule?
Its IC50 is 82 µM.

What about the IC50 [28] of the same molecule?
Its IC50 is 65.3 µM.

What about the “Ratio IC50” value [29] of the same molecule?
Its value is 1.3.

What about the “Ratio IC50” value [30] of the same molecule?
Its value is 0.76.

And the “Ratio IC50” value [31]?
The value was 0.78.

And the “Ratio IC50” value [32]?
Its value is 0.79.

Which results are given for `CC(C)C[C@@H]1NC(=O)[C@H](CCCN)NC(=O)[C@H](C(C)C)NC(=O)[C@@H]2CCCN2C(=O)[C@@H](Cc2ccccc2)NC(=O)[C@H](CC(C)C)NC(=O)[C@H](CCCN)NC(=O)[C@H](C(C)C)NC(=O)[C@@H]2CCCN2C(=O)[C@@H](Cc2ccccc2)NC1=O` (cyclo(L[dF]PV[Orn]L[dF]PV[Orn]))?
hemolysis at 480 µM [15]: 100%; hemolysis at 240 µM [16]: 100%; hemolysis at 120 µM [17]: 100%; hemolysis at 60 µM [18]: 99%; hemolysis at 40 µM [19]: 98%; hemolysis at 20 µM [20]: 24%; hemolysis at 10 µM [21]: 1.5%; hemolysis at 5 µM [22]: 0.5%; hemolysis at 1 µM [23]: 0%

Which MIC [5] does the source give for `CC1COc2c(N3CCN(C)CC3)c(F)cc3c(=O)c(C(=O)O)cn1c23` (stereo not drawn) [OFLOXACIN] here?
The MIC was 2.4 µM (≈ 0.867 µg/mL).

And the MBC [6]?
The MBC was 2.4 µM (≈ 0.867 µg/mL).

What about the MIC [7] of the same molecule?
The MIC was 4.1 µM (≈ 1.48 µg/mL).

And the MBC [8]?
Its MBC is 8.5 µM (≈ 3.07 µg/mL).

What does the source list for `CCCCCCCCCC[P+](Cc1ccccc1O)(c1ccccc1)c1ccccc1.[Cl-]`?
MIC [5]: 1 µM; MBC [6]: 4.1 µM; MIC [7]: 1.9 µM; MBC [8]: 4.1 µM; MIC [1]: 16.6 µM; MFC [2]: 16.6 µM; MIC [3]: 16.6 µM; MFC [4]: 16.6 µM; MIC [9]: 8.2 µM; MBC [10]: 32.8 µM; MIC [11]: 8.2 µM; MBC [12]: 16.4 µM; Activity [33]: 24 - 82.7%; hemolysis at 480 µM [15]: 16.4%; hemolysis at 240 µM [16]: 9.6%; hemolysis at 120 µM [17]: 5.9%; hemolysis at 60 µM [18]: 2.8%; hemolysis at 40 µM [19]: 2.3%; hemolysis at 20 µM [20]: 1.3%; hemolysis at 10 µM [21]: 0.8%; hemolysis at 5 µM [22]: 0%; hemolysis at 1 µM [23]: 0%; IC50 [24]: 3.4 µM; IC50 [25]: 13.2 µM; IC50 [26]: 12.3 µM; IC50 [27]: 26.3 µM; IC50 [28]: 45.7 µM; Ratio IC50 [29]: 13.4; Ratio IC50 [30]: 3.5; Ratio IC50 [31]: 3.7; Ratio IC50 [32]: 1.7
